Data set [1] deals with T1, OATP1B1 (Homo sapiens, UniProt Q9Y6L6).
T1 construct: expressed in transfected cells; host or cells: A431
T1 sequence (Q9Y6L6 1-691): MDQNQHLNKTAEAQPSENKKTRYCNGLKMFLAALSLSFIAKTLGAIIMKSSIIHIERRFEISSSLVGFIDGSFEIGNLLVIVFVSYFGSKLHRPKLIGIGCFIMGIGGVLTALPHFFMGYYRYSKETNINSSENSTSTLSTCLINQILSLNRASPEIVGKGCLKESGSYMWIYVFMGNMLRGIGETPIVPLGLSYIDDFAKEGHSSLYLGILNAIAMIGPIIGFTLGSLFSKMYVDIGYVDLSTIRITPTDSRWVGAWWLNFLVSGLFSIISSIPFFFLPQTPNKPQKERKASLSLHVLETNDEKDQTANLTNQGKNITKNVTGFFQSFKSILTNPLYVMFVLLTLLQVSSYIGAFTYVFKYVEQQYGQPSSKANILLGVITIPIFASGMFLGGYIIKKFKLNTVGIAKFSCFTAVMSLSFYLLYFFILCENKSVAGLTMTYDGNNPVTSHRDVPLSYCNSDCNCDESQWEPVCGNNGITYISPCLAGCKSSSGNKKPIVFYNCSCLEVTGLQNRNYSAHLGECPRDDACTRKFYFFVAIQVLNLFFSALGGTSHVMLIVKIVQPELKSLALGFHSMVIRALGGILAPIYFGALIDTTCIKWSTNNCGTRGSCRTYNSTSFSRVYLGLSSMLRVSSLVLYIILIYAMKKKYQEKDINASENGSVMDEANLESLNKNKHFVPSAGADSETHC
Kind of data set: Uptake of flavonoids by A431-OATP1B1 versus mock cells (APB fluorescence). The data set is classed as cell-based. Particulars: BSP 20 μM, M3′S 2 μM, 2 min. How it is done: (§1) Direct uptake of AMP, MYR, and their sulfate metabolites were examined in A431 cells overexpressing OATP1B1 or OATP2B1, and in their mock‐transfected controls using APB as a fluorescence enhancer. One day before the uptake measurements, the cells were seeded onto 96‐well plates at a density of 80 000 cells/well in DMEM (200 μL). The following day, the cell culture medium was removed, and the cells were rinsed thrice with PBS (200 μL). Thereafter, the cells were preincubated with HBSS (50 μL) for 5 min at 37°C. The uptake reaction was initiated by the addition of a further 50 μL of HBSS containing AMP, MYR, or their sulfate conjugates (10 μM). After incubating for 15 min at 37°C, the reaction was stopped by removing the supernatant and rinsing the cells three times with ice‐cold PBS. Then PBS buffer (200 μL) containing APB (250 μg/mL) and BSA (1 mg/mL) was added to each well.[35] The fluorescence was read using an Enspire plate reader using the wavelengths listed in Section 2.7.
(§2) The concentration‐dependent uptake of M3′S was also tested under the same conditions, except the cells were incubated with 0–10 μM M3′S for 2 min (OATP1B1) or 5 min (OATP2B1).
(§3) To test the effect of BSP (a known inhibitor of OATPs[44]) on the cellular uptake of M3′S, cells were preincubated with HBSS buffer (50 μL) with or without BSP (20 μM) for 5 min at 37°C. Thereafter, we added 50 μL of HBSS containing M3′S (final concentration: 2 μM), and cells were further incubated at 37°C for 2 min (OATP1B1) or 5 min (OATP2B1). The reaction was stopped by removing the supernatant. After washing the cells with ice‐cold PBS, a PBS buffer with APB/BSA was added. Fluorescence was determined by applying an Enspire plate reader at excitation/emission wavelengths of 480/540 nm.

The target of data set [2] is T2, OATP2B1 (Homo sapiens, UniProt O94956).
T2 construct: expressed in transfected cells; host or cells: A431
T2 sequence (O94956 1-709): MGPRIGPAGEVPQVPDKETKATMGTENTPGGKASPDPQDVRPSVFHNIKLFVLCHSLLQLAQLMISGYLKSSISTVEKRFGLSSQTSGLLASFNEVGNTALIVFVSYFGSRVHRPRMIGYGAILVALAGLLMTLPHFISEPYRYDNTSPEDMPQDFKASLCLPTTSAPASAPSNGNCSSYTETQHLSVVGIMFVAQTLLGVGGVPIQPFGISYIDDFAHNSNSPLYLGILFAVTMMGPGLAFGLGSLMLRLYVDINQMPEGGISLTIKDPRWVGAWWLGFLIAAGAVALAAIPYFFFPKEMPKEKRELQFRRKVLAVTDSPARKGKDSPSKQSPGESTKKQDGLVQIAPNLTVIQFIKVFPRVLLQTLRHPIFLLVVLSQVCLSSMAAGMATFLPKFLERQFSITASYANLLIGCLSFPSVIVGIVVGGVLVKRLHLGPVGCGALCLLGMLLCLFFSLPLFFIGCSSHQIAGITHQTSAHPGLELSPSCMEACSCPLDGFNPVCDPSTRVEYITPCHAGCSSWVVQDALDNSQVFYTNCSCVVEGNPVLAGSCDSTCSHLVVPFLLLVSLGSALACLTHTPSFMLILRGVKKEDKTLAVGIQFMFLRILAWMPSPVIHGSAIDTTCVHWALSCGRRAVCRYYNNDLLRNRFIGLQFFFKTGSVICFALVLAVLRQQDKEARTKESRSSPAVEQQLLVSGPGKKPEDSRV
Kind of data set: Uptake of flavonoids by A431-OATP2B1 versus mock cells (APB fluorescence). The data set is classed as cell-based. Particulars: BSP 20 μM, M3′S 2 μM, 5 min. Here is the method: as §1, §2, §3

Data set [3] concerns the target T1, OATP1B1. On the set-up: method as in PMID 32661014. Particulars: positive control, same experimental model; cited from earlier work.
In data set [4] the target is T2, OATP2B1. On the set-up: method as in PMID 32661014. As to conditions: positive control, same experimental model; cited from earlier work.
Data set [5] has as its system T3, human serum albumin (HSA).
T3 construct: purchased Merck (Darmstadt, Germany) A1653
Set-up: method as in PMID 30562928, PMID 28135601. Particulars: same experimental conditions; cited from earlier work.

Data set [6] has as its system T4, CYP3A4.
T4 construct: purchased Merck (Darmstadt, Germany)
Put plainly: CYP3A4 assay (testosterone hydroxylation), CypExpress human kit. The data set is classed as biochemical. Particulars: 20 μM, 5 μM substrate.

Data set [7] deals with CYP2C9. As to conditions: 20 μM test substance, 5 μM substrate.

As to `O=C1OC(c2ccc(O)c(S(=O)(=O)O)c2)(c2ccc(O)c(S(=O)(=O)O)c2)c2c(Br)c(Br)c(Br)c(Br)c21` [BSP, bromosulfophthalein, reference compound], the “effect on uptake of M3′S into OATP1B1‐overexpressing cells” value in data set [1] is “considerably decreased the uptake of M3′S”. The “effect on uptake of M3′S into OATP2B1‐overexpressing cells” value in data set [2] is on record as “considerably decreased the uptake of M3′S”. Moreover, the half-inhibitory concentration (IC50) in data set [3] was 60 nM; in data set [4], 1300 nM.
For `O=c1cc(-c2ccccc2)oc2cc(OS(=O)(=O)O)cc(O)c12` [chrysin‐7‐sulfate], the “displacement of the site marker warfarin from HSA” value in data set [5] is listed as “almost completely displaced the site marker”.
For the compound `CC(=O)N1CCN(c2ccc(OCC3COC(Cn4ccnc4)(c4ccc(Cl)cc4Cl)O3)cc2)CC1` (centres unmarked) [ketoconazole], in data set [6], the “effect on CYP3A4 metabolite formation” value is “marked decreases in metabolite formation”.
For `O=c1c(O)c(-c2ccc(O)c(OS(=O)(=O)O)c2)oc2cc(O)cc(O)c12` [quercetin‐3′‐sulfate], the “displacement of the site marker warfarin from HSA” value in data set [5] is listed as “almost completely displaced the site marker”.
Turning to `Nc1ccc(S(=O)(=O)Nc2ccnn2-c2ccccc2)cc1` [sulfaphenazole], the “effect on CYP2C9‐catalyzed diclofenac hydroxylation (metabolite formation)” value in data set [7] is on record as “marked decreases in metabolite formation”.

The IC50 is the concentration at which inhibition is half-maximal.

Values taken from publication PMC11440035, “Interaction of myricetin, ampelopsin (dihydromyricetin), and their sulfate metabolites with serum albumin, cytochrome P450 (CYP2C9, 2C19, and 3A4) enzymes, and organic anion‐transporting polypeptides (OATP1B1 and OATP2B1)” (Pharmacology Research & Perspectives, 2024).
